Entries after “also recorded” stand apart in the source; their conditions may differ.
What was measured:
[1] = biological target: T1, mushroom tyrosinase (Agaricus bisporus, UniProt C7FF04); test: Enzymatic assay for tyrosinase inhibition; assay type: biochemical; conditions: read-out: Inhibition% ± SEM
[2] = DPPH free radical scavenging assay; conditions: 517 nm; for DPPH (%): radical scavenging, concentration not given; for EC50: read-out: EC50 (DPPH radical scavenging)
[3] = biological target: T1, mushroom tyrosinase; test: Determination of the inhibition type; assay type: biochemical; conditions: Lineweaver-Burk

T1 sequence (C7FF04 2-392): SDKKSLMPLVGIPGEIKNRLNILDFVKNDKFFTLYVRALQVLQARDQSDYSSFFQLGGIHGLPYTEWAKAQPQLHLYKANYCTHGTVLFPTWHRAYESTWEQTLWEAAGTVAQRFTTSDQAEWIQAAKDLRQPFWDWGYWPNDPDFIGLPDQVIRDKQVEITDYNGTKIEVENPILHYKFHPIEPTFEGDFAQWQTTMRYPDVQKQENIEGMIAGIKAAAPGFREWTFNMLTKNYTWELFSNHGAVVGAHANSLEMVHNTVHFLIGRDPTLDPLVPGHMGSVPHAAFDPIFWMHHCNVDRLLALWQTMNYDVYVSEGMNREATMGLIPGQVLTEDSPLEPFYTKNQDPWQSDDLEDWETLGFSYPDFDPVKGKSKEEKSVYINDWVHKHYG

SMILES	inhibition at 50 µM [1] [%]	EC50 [2] [µM]	Km value with increasing inhibitor concentration ([3]; L-Dopa)	Vmax with increasing inhibitor concentration ([3]; L-Dopa)	DPPH (%) [2] [%]	inhibition type ([3]; inhibitor 0, 12.64, 25.29, 50.58 μM, L-Dopa 0.5-10.0 mM)
Cc1ccc(C=NNC(=O)c2cccc(-n3ccc(=O)c(O)c3C)c2)cc1 [6d, 3-(3-hydroxy-2-methyl-4-oxopyridin-1(4H)-yl)-N′-(4-methylbenzylidene)benzohydrazide]	49 ± 7.51	369 ± 10			39.13	
Cc1c(O)c(=O)ccn1-c1cccc(C(=O)NN=Cc2ccc(C#N)cc2)c1 [6c, 3-(3-hydroxy-2-methyl-4-oxopyridin-1(4H)-yl)-N′-(4-cyanobenzylidene)benzohydrazide]	30.8 ± 2.85	216 ± 80			43.67	
Cc1c(O)c(=O)ccn1-c1cccc(C(=O)NN=Cc2ccccc2[N+](=O)[O-])c1 [6a, 3-(3-hydroxy-2-methyl-4-oxopyridin-1(4H)-yl)-N′-(2-nitrobenzylidene)benzohydrazide]	46.1 ± 8.21	32 ± 10			77.15	
Cc1c(O)c(=O)ccn1-c1cccc(C(=O)NN=Cc2ccc(F)cc2)c1 [6b, 3-(3-hydroxy-2-methyl-4-oxopyridin-1(4H)-yl)-N′-(4-fluorobenzylidene)benzohydrazide]	43.1 ± 3.41	12			71.42	
COc1cccc(C=NNC(=O)c2cccc(-n3ccc(=O)c(O)c3C)c2)c1[N+](=O)[O-] [6f, 3-(3-hydroxy-2-methyl-4-oxopyridine-1(4H)-yl)-N′-(3-methoxy-2-nitrobenzylidene)benzohydrazide]	34.8 ± 3.83	168 ± 30			43.67	
Cc1c(O)c(=O)ccn1-c1cccc(C(=O)NN=Cc2ccc(Cl)cc2Cl)c1 [6g, 3-(3-hydroxy-2-methyl-4-oxopyridin-1(4H)-yl)-N′-(2,4-dichlorobenzylidene)benzohydrazide]	28.1 ± 3.97	191 ± 70			39.11	
Cc1c(O)c(=O)ccn1-c1cccc(C(=O)NN=Cc2ccc(C(C)C)cc2)c1 [6e, 3-(3-hydroxy-2-methyl-4-oxopyridin-1(4H)-yl)-N′-(4-isopropylbenzylidene)benzohydrazide]	41.7 ± 4.07	14 ± 10			61.44	

Continued, in another order:

inhibition at 50 µM [1] [%]	EC50 [2] [µM]	Km value with increasing inhibitor concentration ([3]; L-Dopa)	Vmax with increasing inhibitor concentration ([3]; L-Dopa)	SMILES	DPPH (%) [2] [%]	inhibition type ([3]; inhibitor 0, 12.64, 25.29, 50.58 μM, L-Dopa 0.5-10.0 mM)
11.4 ± 2.59	> 400			Cc1c(O)c(=O)ccn1-c1cccc(C(=O)NN=Cc2cc([N+](=O)[O-])ccc2Cl)c1 [6h, 3-(3-hydroxy-2-methyl-4-oxopyridin-1(4H)-yl)-N′-(2-chloro-5-nitrobenzylidene)benzohydrazide]	31.91	
49.6 ± 12.6	185 ± 130	increased	not affected	Cc1c(O)c(=O)ccn1-c1cccc(C(=O)NN=Cc2cc(Br)ccc2O)c1 [6i, 3-(3-hydroxy-2-methyl-4-oxopyridin-1(4H)-yl)-N′-(5-bromo-2-hydroxybenzylidene)benzohydrazide]	42.64	competitive inhibitor; also recorded: competitive type of inhibition
	8.9			O=c1c(O)c(-c2ccc(O)c(O)c2)oc2cc(O)cc(O)c12 [Quercetin, reference compound]	74.33	
40.4 ± 5	383 ± 120			Cc1c(O)c(=O)ccn1-c1cccc(C(=O)NN=Cc2ccc([N+](=O)[O-])s2)c1 [6j, 3-(3-hydroxy-2-methyl-4-oxopyridin-1(4H)-yl)-N'-((5-nitrothiophen-2-yl)methylene)benzohydrazide]	42.74	

— article PMC10629491 (RSC Advances, 2023)
